Laboratory results taken from PMC4476171 (Cardiovascular Diabetology, 2015).

What was measured:
[1] = test system: anesthetized male Sprague–Dawley rats; assay: Hematocrit; type: in vivo, rat; conditions: anesthetized male SD rats, mean ± SE, n = 6-8
Protocol: (§1) After one week of acclimation, SD rats (10–12 weeks old) were randomly divided into study groups. Rats were anesthetized with thiobutabarbital sodium (Inactin, 110 mg/kg, IP; Sigma-Aldrich, St. Louis, Missouri). Core temperature was maintained between 36 and 37°C throughout the study using a heating pad (Fine Science Tools Inc., Foster City, California). Polyethylene PE-50 tubing was inserted into the left femoral artery to permit intermittent blood sampling, and was also connected to a pressure transducer (NL108T2, Harvard Apparatus, Holliston, Massachusetts) for the measurement of blood pressure (BP) and heart rate (HR). […] Urine volumes were measured and urine was analyzed for electrolytes (Na^+, K^+, and Cl^−) and pH at multiple time points during the study. GFR and RBF were determined by inulin and PAH renal clearance at baseline and the end of the study. […]
(§2) Na^+, K^+, and Cl^− concentrations in plasma and urine were measured by a Roche Modular Chemistry System (Roche Diagnostics, Indianapolis, Indiana). Hematocrit was determined using a HESKA I-STAT Hematology Analyzer (HESKA, Fribourg, Switzerland). Urine pH was measured by a pH meter (Fisher Scientific, Pittsburgh, Pennsylvania). Inulin and PAH concentrations in plasma and urine were determined by colorimetric assays. […]

[2] = test system: anesthetized male Sprague–Dawley rats; assay: Renal blood flow by para-aminohippurate clearance; type: in vivo, rat; conditions: anesthetized male SD rats
Protocol: as §1
(§3) One group of animals received four successive infusions of saline. […] BP, HR, urinary Na^+, K^+, and Cl^− excretion were measured at baseline and at the end of each 20 minute infusion period. GFR and RBF were assessed at baseline and at the end of the last infusion period in each animal (Figure 1).
(§4) Animals were randomized into 8 experimental groups (n = 6 - 8) (Table 1): Group 1. […] Parameters measured are the same as described in Protocol 1 (Figure 2). […]

[3] = test system: anesthetized male Sprague–Dawley rats; assay: Renal excretory function: urine flow rate, urinary Na+, K+, Cl− excretion; type: in vivo, rat; conditions: anesthetized male SD rats, Figure 5
Protocol: as §1, §3, §4

[4] = test system: anesthetized male Sprague–Dawley rats; assay: Urine pH; type: in vivo, rat; conditions: anesthetized male SD rats, mean ± SE, n = 6-8
Protocol: as §1, §2

[5] = test system: anesthetized male Sprague–Dawley rats; assay: Plasma insulin; type: in vivo, rat; conditions: anesthetized male SD rats, mean ± SE, n = 6-8
Protocol: as §1, with “(HR). The signal from the pressure transducer was transmitted to a Ponemah data acquisition system (Data Science International, St. Paul, Minnesota). The left femoral vein was cannulated with PE-50 tubing for solution administration and compound delivery, respectively. The bladder was catheterized with PE-100 tubing to allow timed collections of urine.” for “(HR).”

[6] = test system: anesthetized male Sprague–Dawley rats; assay: Plasma K+ concentration; type: in vivo, rat; conditions: anesthetized male SD rats, mean ± SE, n = 6-8
Protocol: as §1, §2

[7] = Plasma concentration of active GLP-1 (ELISA); type: in vivo, rat; conditions: anesthetized male SD rats
Protocol: as §1, with “(HR). The signal from the pressure transducer was transmitted to a Ponemah data acquisition system (Data Science International, St. Paul, Minnesota). The left femoral vein was cannulated with PE-50 tubing for solution administration and compound delivery, respectively. The bladder was catheterized with PE-100 tubing to allow timed collections of urine.” for “(HR).”
Na^+, K^+, and Cl^− concentrations in plasma and urine were measured by a Roche Modular Chemistry System (Roche Diagnostics, Indianapolis, Indiana). Hematocrit was determined using a HESKA I-STAT Hematology Analyzer (HESKA, Fribourg, Switzerland). Urine pH was measured by a pH meter (Fisher Scientific, Pittsburgh, Pennsylvania). Inulin and PAH concentrations in plasma and urine were determined by colorimetric assays. […] Plasma DPP4 activity was measured using a continuous fluorometric assay with the substrate Gly-Pro-AMC, which is cleaved by DPP4 to release the fluorescent AMC leaving group.

DPP4 = biological target: T1, DPP4 (Rattus norvegicus, UniProt P14740); assay: Plasma DPP4 activity, continuous fluorometric assay with Gly-Pro-AMC; type: in vivo; conditions: anesthetized male SD rats, MK-0626 1 mg/kg iv bolus, substrate Gly-Pro-AMC
T1 construct: from tissue; host or cells: plasma of Sprague-Dawley rats
Protocol: as §1, §2

[8] = test system: anesthetized male Sprague–Dawley rats; assay: Glomerular filtration rate by inulin clearance; type: in vivo, rat; conditions: anesthetized male SD rats
Protocol: as §1, §3, §4

[9] = test system: anesthetized male Sprague–Dawley rats; assay: Heart rate recorded from indwelling femoral artery catheter; type: in vivo, rat; conditions: anesthetized male SD rats, mean ± SE, n = 6-8
Protocol: as §1, §3
(§5) Animals were randomized into 8 experimental groups (n = 6 - 8) (Table 1): Group 1. […] Parameters measured are the same as described in Protocol 1 (Figure 2).

[10] = test system: anesthetized male Sprague–Dawley rats; assay: Blood pressure recorded from indwelling femoral artery catheter; type: in vivo, rat; conditions: anesthetized male SD rats, mean ± SE, n = 6-8
Protocol: as §1, §3, §5

[11] = test system: anesthetized male Sprague–Dawley rats; assay: Plasma glucose; type: in vivo, rat; conditions: anesthetized male SD rats, mean ± SE, n = 6-8
Protocol: After one week of acclimation, SD rats (10–12 weeks old) were randomly divided into study groups. Rats were anesthetized with thiobutabarbital sodium (Inactin, 110 mg/kg, IP; Sigma-Aldrich, St. Louis, Missouri). Core temperature was maintained between 36 and 37°C throughout the study using a heating pad (Fine Science Tools Inc., Foster City, California). Polyethylene PE-50 tubing was inserted into the left femoral artery to permit intermittent blood sampling, and was also connected to a pressure transducer (NL108T2, Harvard Apparatus, Holliston, Massachusetts) for the measurement of blood pressure (BP) and heart rate (HR). The signal from the pressure transducer was transmitted to a Ponemah data acquisition system (Data Science International, St. Paul, Minnesota). The left femoral vein was cannulated with PE-50 tubing for solution administration and compound delivery, respectively. […] In addition, 0.9% saline was infused via a Y shape adapter to the left femoral vein at a rate of 0.1 ml/100 g/h. Rats were allowed to stabilize for ~1 hour before initiation of the study. The experimental protocol was initiated with a 20-minute baseline urine collection, followed by administration of either vehicle or test compound at a rate of 0.1 ml/100 g/h for 60-minutes.

[12] = group MK-0626 + Saline, baseline = 20 min period prior to IV administration
[13] = MK-0626 1 mg/kg iv bolus followed by saline iv infusion, end of study
[14] = MK-0626 1 mg/kg iv bolus followed by saline iv infusion

T1 sequence (P14740 37-767 limits assumed): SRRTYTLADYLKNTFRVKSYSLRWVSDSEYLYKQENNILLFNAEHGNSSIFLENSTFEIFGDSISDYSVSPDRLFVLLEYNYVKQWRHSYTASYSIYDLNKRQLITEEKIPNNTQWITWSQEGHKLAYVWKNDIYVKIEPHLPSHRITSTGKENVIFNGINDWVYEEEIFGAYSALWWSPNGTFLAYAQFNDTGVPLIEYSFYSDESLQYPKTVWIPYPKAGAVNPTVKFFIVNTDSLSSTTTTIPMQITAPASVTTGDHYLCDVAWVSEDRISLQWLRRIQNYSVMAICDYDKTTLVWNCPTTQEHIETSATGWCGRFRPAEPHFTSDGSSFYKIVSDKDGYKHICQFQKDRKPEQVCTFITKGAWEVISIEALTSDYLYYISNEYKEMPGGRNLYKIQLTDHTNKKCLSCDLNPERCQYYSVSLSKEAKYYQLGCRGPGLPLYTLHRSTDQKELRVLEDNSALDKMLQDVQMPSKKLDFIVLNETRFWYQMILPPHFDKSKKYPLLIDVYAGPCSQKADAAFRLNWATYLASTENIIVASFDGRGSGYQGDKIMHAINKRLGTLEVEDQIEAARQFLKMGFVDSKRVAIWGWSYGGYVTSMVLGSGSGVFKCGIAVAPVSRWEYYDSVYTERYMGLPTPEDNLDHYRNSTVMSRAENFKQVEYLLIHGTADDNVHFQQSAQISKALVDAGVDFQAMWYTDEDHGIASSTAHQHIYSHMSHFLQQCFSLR

CN(C)C(=O)[C@@H](c1ccc(-c2ccc3ncnn3c2)cc1)[C@H](N)C(=O)N1CCC(F)(F)C1.Cl [MK-0626]
Hematocrit, baseline [1, 12]: 40.0 ± 0.8% | Hematocrit, treatment [1, 13]: 38.2 ± 0.6% | effect on RBF ([2]; MK-0626 1 mg/kg alone, in the absence of GLP-1 administration): increased | effect on diuresis or natriuresis ([3]; MK-0626 1 mg/kg iv bolus alone): no significant effect | urine pH, baseline [4, 12]: 6.07 ± 0.17 | urine pH, treatment [4, 14]: 6.25 ± 0.20 | Insulin, baseline [5, 12]: 2.5 ± 0.2 ng/mL | Insulin, treatment [5, 13]: 2.7 ± 0.1 ng/mL | plasma K+, baseline [6, 12]: 4.4 ± 0.14 mmol/L | plasma K+, treatment [6, 13]: 4.2 ± 0.10 mmol/L | circulating GLP-1 level, baseline before MK-0626 alone ([7]; group MK-0626 alone, baseline, ELISA, active GLP-1): 3.4 pmpol/L | circulating GLP-1 level after MK-0626 alone ([7]; MK-0626 1 mg/kg iv bolus alone (no exogenous GLP-1), ELISA, active GLP-1): 5.5 pmol/L | Plasma DPP4 activity, inhibition (DPP4): greater than 90% | effect on GFR ([8]; all animals that received MK-0626 1 mg/kg, not further enhanced by increasing doses of GLP-1, Figure 6b): increased | HR, baseline [9, 12]: 381.2 ± 10.0 bpm | HR, treatment [9, 14]: 380.9 ± 10.3 bpm | BP, baseline [10, 12]: 123.5 ± 3.7 mmHg | BP, treatment [10, 14]: 121.9 ± 3.9 mmHg | Glucose, baseline [11, 12]: 134.9 ± 6.0 mg/dL | Glucose, treatment [11, 13]: 135.8 ± 7.3 mg/dL

CC[C@H](C)[C@H](NC(=O)[C@H](Cc1ccccc1)NC(=O)[C@H](CCC(=O)O)NC(=O)[C@H](CCCCN)NC(=O)[C@H](C)NC(=O)[C@H](C)NC(=O)[C@H](CCC(N)=O)NC(=O)CNC(=O)[C@H](CCC(=O)O)NC(=O)[C@H](CC(C)C)NC(=O)[C@H](Cc1ccc(O)cc1)NC(=O)[C@H](CO)NC(=O)[C@H](CO)NC(=O)[C@@H](NC(=O)[C@H](CC(=O)O)NC(=O)[C@H](CO)NC(=O)[C@@H](NC(=O)[C@H](Cc1ccccc1)NC(=O)[C@@H](NC(=O)CNC(=O)[C@H](CCC(=O)O)NC(=O)[C@H](C)NC(=O)[C@@H](N)Cc1c[nH]cn1)[C@@H](C)O)[C@@H](C)O)C(C)C)C(=O)N[C@@H](C)C(=O)N[C@@H](Cc1c[nH]c2ccccc12)C(=O)N[C@@H](CC(C)C)C(=O)N[C@H](C(=O)N[C@@H](CCCCN)C(=O)NCC(=O)N[C@@H](CCCNC(=N)N)C(N)=O)C(C)C [GLP-1, Glucagon-like peptide 1, reference compound]
effect on RBF ([2]; GLP-1 alone, only at the highest dose 9.6 pmol/kg/min, Figure 6c): significant effect | effect on diuresis, natriuresis, chloruresis and kaliuresis ([3]; saline bolus followed by GLP-1 iv infusion alone (2.4, 4.8, 9.6 pmol/kg/min)): modest, albeit significant increase | effect on plasma active GLP-1 levels ([7]; exogenous GLP-1 infusion 2.4, 4.8 and 9.6 pmol/kg/min, further enhanced after MK-0626, Figure 4): step-wise increase | effect on GFR ([8]; GLP-1 iv infusion alone, no dose-dependence, Figure 6a): modest increase
